For experiment [1], the system named is human acute monocytic leukemia cell line MV-4-11. Description: Assay 2 (Cell Proliferation Assay), ATP quantitation (CellTiter-Glo). The experiment is classed as cell-based. As to conditions: MV-4-11 cells, read-out: Assay 2 (EC50, inhibition of cell proliferation). On the procedure:
Potencies of inhibitor compounds against cell proliferation was assessed against the human acute monocytic leukemia cell line MV-4-11 (ATCC® CRL-9591™) based on ATP quantitation. MV-4-11 cells or toxicity control HL-60 cells (ATCC® CCL-240™) were incubated in 96-well tissue culture plates (1.67×10^4 cells in 200 μL culture media containing 10% FBS per well) with or without test compound for 72 h at 37° C., 5% CO2. After incubation, each well was mixed by pipetting and 95 μL from each well was transferred to a well in 96-well black OptiPlate® plates (PerkinElmer). An equal volume of CellTiter-Glo® Luminescent Cell Viability Assay reagent (Promega) was added to each well, followed by mixing for 5 min on an orbital plate shaker. Luminescence was measured on a Wallac EnVision 2104 Multilabel Reader (PerkinElmer) to quantitate ATP. Percent inhibition of cell proliferation by test compounds was calculated based on uninhibited cell growth (DMSO) versus cells treated with a potent menin inhibitor at a concentration yielding at least 100×LD50.

Experiment [2] has as its target T1, menin/MLL binding (biotinylated wild-type or mutated menin and MLL-AF9 fusion protein) (Homo sapiens, UniProt O00255).
T1 construct: biotinylated (1) wild-type menin or (2) mutated menin (described in Nature (2012) Vol. 482, pp. 542-548); fused on or other part: Biotin attached chemically (Sulfo-NHS-Biotin); no fused second protein is printed for menin
T1 sequence (O00255 1-459 limits assumed): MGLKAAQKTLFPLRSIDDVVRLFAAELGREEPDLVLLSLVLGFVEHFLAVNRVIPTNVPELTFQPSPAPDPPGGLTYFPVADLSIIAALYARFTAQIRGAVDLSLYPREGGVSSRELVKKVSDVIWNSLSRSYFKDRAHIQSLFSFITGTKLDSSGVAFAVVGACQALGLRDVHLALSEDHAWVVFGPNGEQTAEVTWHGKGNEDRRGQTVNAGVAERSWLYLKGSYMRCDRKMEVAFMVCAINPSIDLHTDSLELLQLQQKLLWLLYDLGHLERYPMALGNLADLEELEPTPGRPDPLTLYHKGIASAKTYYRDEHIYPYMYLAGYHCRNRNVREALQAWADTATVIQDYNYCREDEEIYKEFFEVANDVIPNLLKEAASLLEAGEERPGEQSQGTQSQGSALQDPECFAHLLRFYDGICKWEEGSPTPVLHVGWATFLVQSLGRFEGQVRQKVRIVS
Description: Assay 1 (Binding Assay): AlphaLISA menin/MLL binding. To be noted: 5 nM biotinylated menin, MLL-AF9-FLAG lysate. Put shortly: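 Biotinylated E. coli-expressed menin (wild-type or mutant), 5 nM, incubated 30 min RT with compound and HEK293 lysate of MLL1-1,396–AF9-FLAG in pH 7.4 Tris buffer, 5% DMSO, 1 mM DTT. Anti-FLAG acceptor and streptavidin donor beads added, 60 min RT, AlphaLISA signal read. IC50 from four-parameter fit of % inhibition.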

The results in this text go back to US10899758B2, “Inhibitors of the menin-MLL interaction” (Vitae Pharmaceuticals, LLC, priority 2016, dated 2021).

Read-outs that look alike come from different tables or passages of the source.

On to `CC(C)N(C)C(=O)c1cc(F)ccc1-n1cc(C2CCN(Cc3ccc(F)cc3)CC2)c2ccncc21` [Example 9, 5-fluoro-2-(3-(1-(4-fluorobenzyl)piperidin-4-yl)-1H-pyrrolo[2,3-c]pyridin-1-yl)-N-isopropyl-N-methylbenzamide], for which the EC50 in experiment [1] (Homo sapiens, MV4-11, 72 h) lay within 100 to 1000 nM. This compound returned an IC50 in experiment [2] of less than 100 nM.

Regarding `CC(C)N(C)C(=O)c1cc(F)ccc1-n1c(=O)n(C2CCN(CC[C@H]3CC[C@H](NS(C)(=O)=O)CC3)CC2)c2ccncc21` [Example 78, 5-fluoro-N-isopropyl-N-methyl-2-(1-(1-(2-((1r,4r)-4-(methylsulfonamido)cyclohexyl)ethyl)piperidin-4-yl)-2-oxo-1,2-dihydro-3H-imidazo[4,5-c]pyridin-3-yl)benzamide], the EC50 in experiment [1] (Homo sapiens, MV4-11, 72 h) lay within 100 to 1000 nM. The same compound registered an IC50 in experiment [2] of less than 100 nM.

As for `CCN(C(=O)c1cc(F)ccc1-n1cc(C2CCN(Cc3ccccc3)CC2)c2ccncc21)C(C)C` [Example 32, 2-(3-(1-benzylpiperidin-4-yl)-1H-pyrrolo[2,3-c]pyridin-1-yl)-N-ethyl-5-fluoro-N-isopropylbenzamide], in experiment [1] (Homo sapiens, MV4-11, 72 h), the EC50 was less than 100 nM. The compound further had an IC50 in experiment [2] of less than 100 nM.

For the compound `CC(C)N(C(=O)c1cc(F)ccc1-n1cc(C2CCN(Cc3ccc4oc(=O)[nH]c4c3)C2)c2ccncc21)C(C)C` (stereo not drawn) [Example 140, 5-fluoro-N,N-diisopropyl-2-(3-(1-((2-oxo-2,3-dihydrobenzo[d]oxazol-5-yl)methyl)pyrrolidin-3-yl)-1H-pyrrolo[2,3-c]pyridin-1-yl)benzamide], the EC50 in experiment [1] (Homo sapiens, MV4-11, 72 h) is less than 100 nM. Further, the IC50 in experiment [2] was less than 100 nM.

Regarding `CC(C)N(C)C(=O)c1cc(F)ccc1-n1cc(C2CCN(C[C@H]3CC[C@H](NS(C)(=O)=O)CC3)CC2)c2ccncc21` [Example 21, 5-fluoro-N-isopropyl-N-methyl-2-(3-(1-((trans-4-(methylsulfonamido)cyclohexyl)methyl)piperidin-4-yl)-1H-pyrrolo[2,3-c]pyridin-1-yl)benzamide], the EC50 in experiment [1] (Homo sapiens, MV4-11, 72 h) is 100 to 1000 nM. Also, the IC50 in experiment [2] was less than 100 nM.

For the compound `CC(C)N(C)C(=O)c1cc(F)ccc1-n1cc(C2CCCN(Cc3ccc4[nH]c(=O)[nH]c4c3)C2)c2ccncc21` (single isomer, unassigned) [Example 43A, 5-fluoro-N-isopropyl-N-methyl-2-(3-(1-((2-oxo-2,3-dihydro-1H-benzo[d]imidazol-5-yl)methyl)piperidin-3-yl)-1H-pyrrolo[2,3-c]pyridin-1-yl)benzamide], the EC50 in experiment [1] (Homo sapiens, MV4-11, 72 h) is less than 100 nM. Also, the IC50 in experiment [2] is less than 100 nM.

With `CC(C)N(C)C(=O)c1cc(F)ccc1-n1cc(C2CCN(CC3CC(F)(F)C3)CC2)c2ccncc21` [Example 16, 2-(3-(1-((3,3-difluorocyclobutyl)methyl)piperidin-4-yl)-1H-pyrrolo[2,3-c]pyridin-1-l)-5-fluoro-N-isopropyl-N-methylbenzamide], the EC50 in experiment [1] (Homo sapiens, MV4-11, 72 h) lay within 100 to 1000 nM. Moreover, in experiment [2], the IC50 was less than 100 nM.

As for `CC(C)N(C)C(=O)c1cc(F)ccc1-n1cc(C2CCC(NCC3CCC(NS(C)(=O)=O)CC3)CC2)c2ccncc21` (single isomer, unassigned) [Example 62, 5-fluoro-N-isopropyl-N-methyl-2-(3-(4-(((4-(methylsulfonamido)cyclohexyl)methyl)amino)cyclohexyl)-1H-pyrrolo[2,3-c]pyridin-1-yl)benzamide], the EC50 in experiment [1] (72 h) is not below 1000 nM. The compound further gave an IC50 in experiment [2] of less than 100 nM.

Take `CC(C)N(C)C(=O)c1cc(F)ccc1-n1cc([C@H]2CC[C@H](N3CCOCC3)CC2)c2ccncc21` [Example 117, 5-fluoro-N-isopropyl-N-methyl-2-(3-(trans-4-morpholinocyclohexyl)-1H-pyrrolo[2,3-c]pyridin-1-yl)benzamide]: in experiment [1] (Homo sapiens, MV4-11, 72 h), the EC50 was not below 1000 nM. In experiment [2], this compound yielded an IC50 of less than 100 nM.

As to `CC(C)N(C)C(=O)c1cc(F)ccc1-n1cc(C2CCN(Cc3ccc4[nH]c(=O)[nH]c4c3)CC2)c2ccncc21` [Example 5, 5-fluoro-N-isopropyl-N-methyl-2-(3-(1-((2-oxo-2,3-dihydro-1H-benzo[d]imidazol-5-yl)methyl)piperidin-4-yl)-1H-pyrrolo[2,3-c]pyridin-1-yl)benzamide], in experiment [1] (Homo sapiens, MV4-11, 72 h), the EC50 fell in the range of 100 to 1000 nM. This compound showed an IC50 in experiment [2] of less than 100 nM.

Turning to `CC(C)N(C)C(=O)c1cc(F)ccc1-n1cc([C@H]2CC[C@@H](N)CC2)c2ccncc21` [Example 58, 2-(3-(cis-4-aminocyclohexyl)-1H-pyrrolo[2,3-c]pyridin-1-yl)-5-fluoro-N-isopropyl-N-methylbenzamide], the EC50 in experiment [1] (Homo sapiens, MV4-11, 72 h) was not below 1000 nM. Further, the IC50 in experiment [2] fell in the range of 100 to 1000 nM.

As to `CC(C)N(C)C(=O)c1cc(F)ccc1-n1cc(C2CCN(CCC3CCOCC3)CC2)c2ccncc21` [Example 6, 5-fluoro-N-isopropyl-N-methyl-2-(3-(1-(2-(tetrahydro-2H-pyran-4-yl)ethyl)piperidin-4-yl)-1H-pyrrolo[2,3-c]pyridin-1-yl)benzamide], the EC50 in experiment [1] (Homo sapiens, MV4-11, 72 h) was 100 to 1000 nM. In experiment [2], this compound registered a half-maximal inhibitory concentration (IC50) of less than 100 nM.

For the compound `CC(C)N(C(=O)c1cc(F)ccc1-n1cc(C2CN(C[C@H]3CC[C@H](NS(C)(=O)=O)CC3)C2)c2ccncc21)C(C)C` [Example 138, 5-fluoro-N,N-diisopropyl-2-(3-(1-(((1r,4r)-4-(methylsulfonamido)cyclohexyl)methyl)azetidin-3-yl)-1H-pyrrolo[2,3-c]pyridin-1-yl)benzamide], in experiment [1] (Homo sapiens, MV4-11, 72 h), the EC50 lay in the range of 100 to 1000 nM. For the same compound, the IC50 in experiment [2] was less than 100 nM.

`CC(C)N(C(=O)c1cc(F)ccc1-n1cc(C2CCN(Cc3ccc4c(c3)[nH]c(=O)n4CCO)C2)c2ccncc21)C(C)C` (stereo not drawn) [Example 126, 5-fluoro-2-(3-(1-((1-(2-hydroxyethyl)-2-oxo-2,3-dihydro-1H-benzo[d]imidazol-5-yl)methyl)pyrrolidin-3-yl)-1H-pyrrolo[2,3-c]pyridin-1-yl)-N,N-diisopropylbenzamide]: the EC50 in experiment [1] (Homo sapiens, MV4-11, 72 h) was less than 100 nM. Further, the IC50 in experiment [2] was less than 100 nM.

Take `CCN(C(=O)c1cc(F)ccc1-n1cc(C2CCCN(Cc3ccc4[nH]c(=O)[nH]c4c3)C2)c2ccncc21)C(C)C` (single isomer, unassigned) [Example 47B]: in experiment [1] (72 h), the EC50 was less than 100 nM. Further, the IC50 in experiment [2] was less than 100 nM.

As to `CC(C)N(CCO)C(=O)c1cc(F)ccc1-n1cc(C2CCN(Cc3ccccc3)CC2)c2ccncc21` [Example 36, 2-(3-(1-benzylpiperidin-4-yl)-1H-pyrrolo[2,3-c]pyridin-1-yl)-5-fluoro-N-(2-hydroxyethyl)-N-isopropylbenzamide], the EC50 in experiment [1] (Homo sapiens, MV4-11, 72 h) was less than 100 nM. In addition, in experiment [2], the IC50 is less than 100 nM.

On to `CC(C)N(C)C(=O)c1cc(F)ccc1-n1cc(C2CCN(C[C@H]3CC[C@@H](O)CC3)CC2)c2ccncc21` [Example 27A, cis-(5-fluoro-2-(3-(1-((4-hydroxycyclohexyl)methyl)piperidin-4-yl)-1H-pyrrolo[2,3-c]pyridin-1-yl)-N-isopropyl-N-methylbenzamide)], for which, in experiment [1] (Homo sapiens, MV4-11, 72 h), the EC50 was not below 1000 nM. In experiment [2], the IC50 was less than 100 nM.

With `CCN(C(=O)c1cc(F)ccc1-n1cc(C2CCN(C[C@H]3CC[C@H](NS(C)(=O)=O)CC3)C2)c2ccncc21)C(C)C` (stereo partly drawn) [Example 125, N-ethyl-5-fluoro-N-isopropyl-2-(3-(1-((trans-4-(methylsulfonamido)cyclohexyl)methyl)pyrrolidin-3-yl)-1H-pyrrolo[2,3-c]pyridin-1-yl)benzamide], the EC50 in experiment [1] (Homo sapiens, MV4-11, 72 h) is less than 100 nM. In experiment [2], this compound came in with an IC50 of less than 100 nM.
